According to patent US5912248A, “Excitatory amino acid receptor antagonists” (Eli Lilly and Company, priority 1996, dated 1999):

Test system: metabotropic glutamate receptors
Assay: displacement of 1S,3R-ACPD-sensitive [^3 H]glutamate binding to rat brain cell membranes
Settings: crude membranes of rat forebrain
Method: The binding of [^3 H]glutamate was conducted with crude membranes of rat forebrain as described by Schoepp and True, Neuroscience Lett., 145, 100-104 (1992) and Wright et al., J. Neurochemistry 63, 938-945, 1994.

| SMILES | IC50 | activity in the binding test (in words) |
| --- | --- | --- |
| NC1(C(=O)O)CC(Sc2ccccc2)C2C(C(=O)O)C21 (stereo not drawn) [Example 1, 1SR,2RS,4SR,5SR,6SR-2-Amino-4-(phenylthio)bicyclo[3.1.0]hexane-2,6-dicarboxylic acid] | 242 nM | – |
| NC1(C(=O)O)CC(SCc2ccco2)C2C(C(=O)O)C21 (stereo not drawn) [Example 8, 1SR,2RS,4RS,5SR,6SR-2-Amino-4-((2-furanylmethyl)thio)bicyclo[3.1.0]hexane-2,6-dicarboxylic acid] | – | essentially inactive |
